Species: Rattus norvegicus
Assay: DrugMatrix - Regimen: Daily Repeat
Format: toxicity, organism-based, Sprague-Dawley
Set-up: regimen Daily Repeat, gender Male, age 6-8 weeks
Conditions: in vivo, po, route oral GAVAGE, vehicle .5 % CMC; for ABSOLUTE BASOPHIL / ABSOLUTE EOSINOPHIL / ABSOLUTE LYMPHOCYTE / ABSOLUTE MONOCYTE / ABSOLUTE SEGMENTED NEUTROPHIL / BASOPHIL / EOSINOPHIL / ERYTHROCYTE COUNT / HEMATOCRIT / HEMOGLOBIN / LEUKOCYTE COUNT / LYMPHOCYTE / MEAN CORPUSCULAR HEMOGLOBIN / MEAN CORPUSCULAR HEMOGLOBIN CONCENTRATION / MEAN CORPUSCULAR VOLUME / MONOCYTE / NEUTROPHIL / NUCLEATED RED BLOOD CELLS / PLATELET COUNT: tissue Blood; for ALANINE AMINOTRANSFERASE / ALBUMIN / ALKALINE PHOSPHATASE / ASPARTATE AMINOTRANSFERASE / BLOOD UREA NITROGEN / CARBON DIOXIDE / CHLORIDE / CHOLESTEROL / CREATINE PHOSPHOKINASE / CREATININE / GLUCOSE / LACTATE DEHYDROGENASE / LIPASE / PHOSPHORUS / POTASSIUM / SODIUM / TOTAL BILIRUBIN / TOTAL PROTEIN / URIC ACID: tissue Plasma
[1] = 0.006 mg/kg, 72 h, dose level Low, time 3 day
[2] = 0.006 mg/kg, 120 h, dose level Low, time 5 day
[3] = 0.04 mg/kg, 72 h, dose level High, time 3 day
[4] = 0.04 mg/kg, 120 h, dose level High, time 5 day

C=C1/C(=C\C=C2/CCC[C@]3(C)[C@@H]([C@H](C)CCCC(C)(C)O)CC[C@@H]23)C[C@@H](O)C[C@@H]1O [CALCITRIOL]
ABSOLUTE BASOPHIL [1]: 0 CELLS/uL
ABSOLUTE EOSINOPHIL [1]: 45.67 CELLS/uL
ABSOLUTE LYMPHOCYTE [1]: 10032.33 CELLS/uL
ABSOLUTE MONOCYTE [1]: 329.67 CELLS/uL
ABSOLUTE SEGMENTED NEUTROPHIL [1]: 1592.33 CELLS/uL
BASOPHIL [1]: 0%
EOSINOPHIL [1]: 0.33%
ERYTHROCYTE COUNT [1]: 5.61 x10E6/uL
HEMATOCRIT [1]: 34.07%
HEMOGLOBIN [1]: 13.17 G/DL
LEUKOCYTE COUNT [1]: 12 x10E3/uL
LYMPHOCYTE [1]: 84%
MEAN CORPUSCULAR HEMOGLOBIN [1]: 23.57 pg
MEAN CORPUSCULAR HEMOGLOBIN CONCENTRATION [1]: 38.7 G/DL
MEAN CORPUSCULAR VOLUME [1]: 60.93 fL
MONOCYTE [1]: 2.67%
NEUTROPHIL [1]: 13%
NUCLEATED RED BLOOD CELLS [1]: 0 /100WBC
PLATELET COUNT [1]: 1046.67 x10E3/uL
ALANINE AMINOTRANSFERASE [1]: 66.67 u/L
ALBUMIN [1]: 3.93 G/DL
ALKALINE PHOSPHATASE [1]: 358 u/L
ASPARTATE AMINOTRANSFERASE [1]: 93.67 u/L
BLOOD UREA NITROGEN [1]: 17 mg/dL
CARBON DIOXIDE [1]: 25.33 mmol/L
CHLORIDE [1]: 101.33 MEQ/L
CHOLESTEROL [1]: 73 mg/dL
CREATINE PHOSPHOKINASE [1]: 357 u/L
CREATININE [1]: 0.21 mg/dL
GLUCOSE [1]: 146.67 mg/dL
LACTATE DEHYDROGENASE [1]: 503.33 u/L
LIPASE [1]: 11 u/L
PHOSPHORUS [1]: 13.67 mg/dL
POTASSIUM [1]: 6.19 MEQ/L
SODIUM [1]: 143.5 MEQ/L
TOTAL BILIRUBIN [1]: 0.17 mg/dL
TOTAL PROTEIN [1]: 5.8 G/DL
URIC ACID [1]: 1.47 mg/dL
ABSOLUTE BASOPHIL [2]: 0 CELLS/uL
ABSOLUTE EOSINOPHIL [2]: 0 CELLS/uL
ABSOLUTE LYMPHOCYTE [2]: 11413 CELLS/uL
ABSOLUTE MONOCYTE [2]: 402.33 CELLS/uL
ABSOLUTE SEGMENTED NEUTROPHIL [2]: 1784.67 CELLS/uL
BASOPHIL [2]: 0%
EOSINOPHIL [2]: 0%
ERYTHROCYTE COUNT [2]: 5.87 x10E6/uL
HEMATOCRIT [2]: 34.33%
HEMOGLOBIN [2]: 13.57 G/DL
LEUKOCYTE COUNT [2]: 13.6 x10E3/uL
LYMPHOCYTE [2]: 84%
MEAN CORPUSCULAR HEMOGLOBIN [2]: 23.17 pg
MEAN CORPUSCULAR HEMOGLOBIN CONCENTRATION [2]: 39.53 G/DL
MEAN CORPUSCULAR VOLUME [2]: 58.53 fL
MONOCYTE [2]: 3%
NEUTROPHIL [2]: 13%
NUCLEATED RED BLOOD CELLS [2]: 0 /100WBC
PLATELET COUNT [2]: 1088.67 x10E3/uL
ALANINE AMINOTRANSFERASE [2]: 57.33 u/L
ALBUMIN [2]: 4.37 G/DL
ALKALINE PHOSPHATASE [2]: 445.33 u/L
ASPARTATE AMINOTRANSFERASE [2]: 99.67 u/L
BLOOD UREA NITROGEN [2]: 19 mg/dL
CARBON DIOXIDE [2]: 31.33 mmol/L
CHLORIDE [2]: 95.33 MEQ/L
CHOLESTEROL [2]: 61 mg/dL
CREATINE PHOSPHOKINASE [2]: 435 u/L
CREATININE [2]: 0.17 mg/dL
GLUCOSE [2]: 145 mg/dL
LACTATE DEHYDROGENASE [2]: 606.67 u/L
LIPASE [2]: 10.33 u/L
PHOSPHORUS [2]: 11.6 mg/dL
POTASSIUM [2]: 5.78 MEQ/L
SODIUM [2]: 141.37 MEQ/L
TOTAL BILIRUBIN [2]: 0.13 mg/dL
TOTAL PROTEIN [2]: 6.37 G/DL
URIC ACID [2]: 1.6 mg/dL
ABSOLUTE BASOPHIL [3]: 0 CELLS/uL
ABSOLUTE EOSINOPHIL [3]: 117 CELLS/uL
ABSOLUTE LYMPHOCYTE [3]: 9651 CELLS/uL
ABSOLUTE MONOCYTE [3]: 117 CELLS/uL
ABSOLUTE SEGMENTED NEUTROPHIL [3]: 6315 CELLS/uL
BASOPHIL [3]: 0%
EOSINOPHIL [3]: 0.67%
ERYTHROCYTE COUNT [3]: 6 x10E6/uL
HEMATOCRIT [3]: 37.07%
HEMOGLOBIN [3]: 14.33 G/DL
LEUKOCYTE COUNT [3]: 16.2 x10E3/uL
LYMPHOCYTE [3]: 57.67%
MEAN CORPUSCULAR HEMOGLOBIN [3]: 23.93 pg
MEAN CORPUSCULAR HEMOGLOBIN CONCENTRATION [3]: 38.67 G/DL
MEAN CORPUSCULAR VOLUME [3]: 62 fL
MONOCYTE [3]: 0.67%
NEUTROPHIL [3]: 41%
NUCLEATED RED BLOOD CELLS [3]: 0 /100WBC
PLATELET COUNT [3]: 1193.33 x10E3/uL
ALANINE AMINOTRANSFERASE [3]: 118.67 u/L
ALBUMIN [3]: 3.1 G/DL
ALKALINE PHOSPHATASE [3]: 333 u/L
ASPARTATE AMINOTRANSFERASE [3]: 517.33 u/L
BLOOD UREA NITROGEN [3]: 95 mg/dL
CARBON DIOXIDE [3]: 24 mmol/L
CHLORIDE [3]: 100 MEQ/L
CHOLESTEROL [3]: 98.67 mg/dL
CREATINE PHOSPHOKINASE [3]: 1977.67 u/L
CREATININE [3]: 1.67 mg/dL
GLUCOSE [3]: 129.67 mg/dL
LACTATE DEHYDROGENASE [3]: 1234.67 u/L
LIPASE [3]: 10 u/L
PHOSPHORUS [3]: 17.23 mg/dL
POTASSIUM [3]: 5.62 MEQ/L
SODIUM [3]: 140.85 MEQ/L
TOTAL BILIRUBIN [3]: 0.2 mg/dL
TOTAL PROTEIN [3]: 5.9 G/DL
URIC ACID [3]: 1.93 mg/dL
ABSOLUTE BASOPHIL [4]: 0 CELLS/uL
ABSOLUTE EOSINOPHIL [4]: 37.4 CELLS/uL
ABSOLUTE LYMPHOCYTE [4]: 15678.4 CELLS/uL
ABSOLUTE MONOCYTE [4]: 350.8 CELLS/uL
ABSOLUTE SEGMENTED NEUTROPHIL [4]: 1413.4 CELLS/uL
BASOPHIL [4]: 0%
EOSINOPHIL [4]: 0.2%
ERYTHROCYTE COUNT [4]: 6.14 x10E6/uL
HEMATOCRIT [4]: 35.74%
HEMOGLOBIN [4]: 13.9 G/DL
LEUKOCYTE COUNT [4]: 17.48 x10E3/uL
LYMPHOCYTE [4]: 89.8%
MEAN CORPUSCULAR HEMOGLOBIN [4]: 22.62 pg
MEAN CORPUSCULAR HEMOGLOBIN CONCENTRATION [4]: 38.88 G/DL
MEAN CORPUSCULAR VOLUME [4]: 58.22 fL
MONOCYTE [4]: 2%
NEUTROPHIL [4]: 8%
NUCLEATED RED BLOOD CELLS [4]: 0.2 /100WBC
PLATELET COUNT [4]: 1031.8 x10E3/uL
ALANINE AMINOTRANSFERASE [4]: 34.8 u/L
ALBUMIN [4]: 3.62 G/DL
ALKALINE PHOSPHATASE [4]: 233.8 u/L
ASPARTATE AMINOTRANSFERASE [4]: 68.4 u/L
BLOOD UREA NITROGEN [4]: 19.4 mg/dL
CARBON DIOXIDE [4]: 30.2 mmol/L
CHLORIDE [4]: 98.6 MEQ/L
CHOLESTEROL [4]: 99.6 mg/dL
CREATINE PHOSPHOKINASE [4]: 347.4 u/L
CREATININE [4]: 0.2 mg/dL
GLUCOSE [4]: 143.4 mg/dL
LACTATE DEHYDROGENASE [4]: 272.4 u/L
LIPASE [4]: 9.2 u/L
PHOSPHORUS [4]: 10.48 mg/dL
POTASSIUM [4]: 5.5 MEQ/L
SODIUM [4]: 142.72 MEQ/L
TOTAL BILIRUBIN [4]: 0.1 mg/dL
TOTAL PROTEIN [4]: 5.84 G/DL
URIC ACID [4]: 1.34 mg/dL
